# Assays:
# [1] = system: PC-3 prostate cancer cells; assay: PC3 cell viability and proliferation assay (MTS); type: cell-based; details: Homo sapiens, 72 hours, mean of 3 independent experiments, read-out: PC3 GI50 D3
# Method: PC-3 prostate cancer cells were obtained from ATCC, and maintained in F-12K medium containing 7% FBS and 1% penicillin/streptomycin. Cells were incubated at 37° C. in a humidified atmosphere containing 5% CO2.
# Cell viability was assayed using the MTS technique in 96-well culture plates (CellTiter 96® Aqueous Non-Radioactive Cell Proliferation Assay, Promega) according to the manufacturer's instructions. MTS (3-(4,5-dimethyl-thiazol-2-yl)-5-(3-carboxymethoxyphenyl)-2-(4-sulfophenyl)-2H-tetrazolium) is a MTT-derived tetrazolium that is reduced in metabolically active cells into a soluble, cell-permeant formazan. The amount of formazan, detected by its absorbance at 492 nm is proportional to the number of living, metabolically active cells.
# 2×10^3 PC3 cells were seeded per well. 24 hours later, the medium was changed and the cells treated in triplicate with the following concentrations of each compound: 10 μM-3.33 μM-1.11 μM-370 nM-123 nM-41 nM-14 nM and 5 nM. The compounds were diluted in 100% DMSO, whose final concentration on cells was kept at 0.5%.
# Cells were incubated with the compounds for 72 hours, and their viability then assayed by the addition of MTS for 2 hours. Absorbance at 492 nm was measured directly from the 96-well culture plates. GI50 (Growth Inhibition 50) concentrations for each compound were calculated using a sigmoidal variable slope fit (Prism 4.0, Graphpad Softwares). Values represent mean of 3 independent experiments.
# Uch-L3 = target: T1, Uch-L3 (Homo sapiens, UniProt P15374); assay: UCH-L3 activity assay (Ub-AMC); type: biochemical; details: 400 nM Ub-AMC, 13 pM enzyme, 30 min pre-incubation, 60 min at 37° C., sigmoidal fit; read-out: Uch-L3 (inhibition of cysteine protease activity)
# T1 sequence (P15374 1-230): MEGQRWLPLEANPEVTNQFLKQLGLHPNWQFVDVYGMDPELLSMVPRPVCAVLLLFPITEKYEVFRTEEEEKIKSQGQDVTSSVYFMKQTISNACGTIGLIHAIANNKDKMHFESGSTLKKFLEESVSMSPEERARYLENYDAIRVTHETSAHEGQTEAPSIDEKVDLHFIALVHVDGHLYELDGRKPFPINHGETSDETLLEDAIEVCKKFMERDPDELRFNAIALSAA
# Method: Uch-L3 was diluted in USP buffer (50 mM Tris HCl; 0.5 mM EDTA; 5 mM DTT; 0.01% Triton X-100; Bovine Serum Albumin 0.05 mg.ml^−1 pH7.6). Compounds stocks (100 mM) were stored at −20° C. in DMSO. Compounds were tested at the following final concentrations: 100 μM; 33.3 μM; 11.1 μM; 3.7 μM; 1.23 μM; 412 nM; 137 nM; 45.7 nM, 15.2 nM; 5 nM.
# Reactions were performed as duplicates in Black LJL 96 well plates (HE microplates; Molecular Devices; 20 μl final reaction volume). The substrate concentration for Uch-L3 was 400 nM Ub-AMC (Boston Biochem). The concentration of the enzyme (Uch-L3) in specificity assays was 13 pM. The concentrations were determined in order to perform specificity assays under initial velocities at fixed substrate concentration. Compounds were pre-incubated with enzymes for 30 minutes at 25° C. Reactions were initiated by addition of substrate to the plates containing the enzymes (+/−compounds) diluted in assay buffer.
# Reactions were incubated for 60 minutes at 37° C. Reactions were stopped by adding acetic acid (100 mM final). Readings were performed on a Pherastar Fluorescent Reader (BMG). δ Emission 380 nm; 6 Excitation=460 nm. Data (mean values +/−standard deviation) were analyzed as % of control (no compound) and plotted as percentage versus the Log of the compound concentration using GraphPad (Prism). Data were fitted to a sigmoidal model (variable slope).
Compound,GI50 [1] [µM],IC50 (Uch-L3) [µM]
"CON=C1c2ccccc2-c2nn3c(C)nnc3nc21 (mixture of isomers) [5a, 3-Methyl-1,2,3a,4,10-pentaaza-cyclopenta[b]fluoren-9-one O-methyl-oxime]",6.15,0.41
"C=CCON=C1c2ccccc2-c2nn3c(C)nnc3nc21 (mixture of isomers) [5b, 3-Methyl-1,2,3a,4,10-pentaaza-cyclopenta[b]fluoren-9-one O-allyl-oxime]",6.69,0.272
"C=CCON=C1c2ccccc2-c2nn3nnnc3nc21 (mixture of isomers) [compound 6, 1,2,3,3a,4,10-hexaaza-cyclopenta[b]fluoren-9-one O-allyl-oxime]",0.18,0.032
"ON=C1c2ccccc2-c2nn3nnnc3nc21 (mixture of isomers) [compound 7, 1,2,3,3a,4,10-hexaaza-cyclopenta[b]fluoren-9-one oxime]",0.466,0.057
"C=CCON=C1c2ccccc2-c2nn3c(CCCC)nnc3nc21 (mixture of isomers) [5d, 3-Butyl-1,2,3a,4,10-pentaaza-cyclopenta[b]fluoren-9-one O-allyl-oxime]",2.79,0.25

# Next, values leading:
GI50 [1] [µM],IC50 (Uch-L3) [µM],Compound
0.391,2,"CCCCCCCCCCON=C1c2ccccc2-c2nn3nnnc3nc21 (mixture of isomers) [8a, 1,2,3,3a, 4,10-Hexaaza-cyclopenta[b]fluoren-9-one O-decyl-oxime]"
8.4,0.235,"C=CCON=C1c2ccccc2-c2nn3c(CC)nnc3nc21 (mixture of isomers) [10f, 3-Ethyl-1,2,3a,4,10-pentaaza-cyclopenta[b]fluoren-9-one O-allyl-oxime]"
0.502,0.121,"c1ccc(OCCCON=C2c3ccccc3-c3nn4nnnc4nc32)cc1 (mixture of isomers) [8c, 1,2,3,3a,4,10-Hexaaza-cyclopenta[b]fluoren-9-one O-(3-phenoxy-propyl)-oxime]"
0.457,0.048,"COCCON=C1c2ccccc2-c2nn3nnnc3nc21 (mixture of isomers) [8b, 1,2,3,3a, 4,10-Hexaaza-cyclopenta[b]fluoren-9-one O-(2-methoxy-ethyl)-oxime]"

# Reference: patent US20100048575A1, “NOVEL TETRACYCLIC INHIBITORS OF CYSTEINE PROTEASES, THE PHARMACEUTICAL COMPOSITIONS THEREOF AND THEIR THERAPEUTIC APPLICATIONS” (priority 2006, published 2010)
